Data taken from patent US12404239B2, “Modulators of BCL6 as ligand directed degraders” (Celgene Corporation, priority 2022, dated 2025).

target: T1, BCL6 (Homo sapiens, UniProt P41182); test: 24 h degradation assay (BCL6 HiBiT); assay type: cell-based; conditions: read-out: YCon (% remaining maximal effect)
T1 construct: HiBiT-tag knocked into endogenous BCL6 locus using CRISPR; endogenous in cells; host or cells: DHL-4_BCL6_HiBiT cells (CRISPR knock-in)
Protocol: A DHL-4 cell line with HiBiT-tag knocked into endogenous BCL6 locus using CRISPR was generated. The DHL-4_BCL6_HiBiT cells were dispensed into 384-well plates (Corning no. 3570) that were pre-spotted with compounds. Compounds were dispensed by an acoustic dispenser (ATS acoustic transfer system from EDC Biosystems) into a 384-well plate in a 10-point dose response curve using 3-fold dilutions starting at 1-10 μM and going down to 0.0015-0.00015 μM. 25 μL of media (RPMI-1640+10% heat inactivated FBS+1×Pen/Strep) containing 2500 of DHL-4 was dispensed per well. […] After incubation, 25 μL of the Nano-Glo HiBiT lytic detection working solution (Promega, catalogue no. N3040, Madison, WI) was added to each well and incubated at room temperature for 15-30 min, protected from light. After 30 min, luminescence was read on an Envision or PHERAstar luminescence reader. To determine the EC50 value (the half-maximum effective concentration) and the level of the gradation (Yconstant) of a BCL6 degrader, luminescent signal normalized by DMSO control (Y) and compound concentration (x) was fitted using a four-parameter dose-response model (Y=(A+((B−A)/1+((C/x)^D) in Dotmatics. Fitted value C is the degradation EC50 and the minimum value A is the Y constant.

Compound	Emax
CO[C@@H]1CN(c2ncc(C#N)c(Nc3ccc4c(c3)CC(=O)N4C)n2)CC[C@H]1Nc1ccc2c(C3CCC(=O)NC3=O)nn(C)c2c1 (stereo partly drawn) [Example 145, 2-((3R,4R)-4-((3-(2,6-dioxopiperidin-3-yl)-1-methyl-1H-indazol-6-yl)amino)-3-methoxypiperidin-1-yl)-4-((1-methyl-2-oxoindolin-5-yl)amino) pyrimidine-5-carbonitrile]	20 to 60%
C[C@@H]1C[C@H](N(C)c2ncc(Cl)c(Nc3ccc4c(c3)CC(=O)N4C)n2)CC(=O)N1c1ccc2c(C3CCC(=O)NC3=O)nn(C)c2c1 (stereo partly drawn) [Example 150, 3-(6-((2R,4S)-4-((5-chloro-4-((1-methyl-2-oxoindolin-5-yl)amino)pyrimidin-2-yl)(methyl)amino)-2-methyl-6-oxopiperidin-1-yl)-1-methyl-1H-indazol-3-yl) piperidine-2,6-dione]	20 to 60%

Results, then the molecule that gave them:

Emax	Compound
< 20%	C[C@@H]1C[C@@H](N(C)c2ncc(Cl)c(Nc3ccc4c(c3)CC(=O)N4C)n2)CC(=O)N1c1ccc2c(C3CCC(=O)NC3=O)nn(C)c2c1 (stereo partly drawn) [Example 151, 3-(6-((2R,4R)-4-((5-chloro-4-((1-methyl-2-oxoindolin-5-yl)amino)pyrimidin-2-yl)(methyl)amino)-2-methyl-6-oxopiperidin-1-yl)-1-methyl-1H-indazol-3-yl) piperidine-2,6-dione]
> 60%	C[C@H]1C[C@@H](N(C)c2ncc(Cl)c(Nc3ccc4c(c3)CC(=O)N4C)n2)CC(=O)N1c1ccc2c(C3CCC(=O)NC3=O)nn(C)c2c1 (stereo partly drawn) [Example 152, 3-(6-((2S,4R)-4-((5-chloro-4-((1-methyl-2-oxoindolin-5-yl)amino)pyrimidin-2-yl)(methyl)amino)-2-methyl-6-oxopiperidin-1-yl)-1-methyl-1H-indazol-3-yl) piperidine-2,6-dione]
< 20%	C[C@H]1C[C@H](N(C)c2ncc(Cl)c(Nc3ccc4c(c3)CC(=O)N4C)n2)CC(=O)N1c1ccc2c(C3CCC(=O)NC3=O)nn(C)c2c1 (stereo partly drawn) [Example 153, 3-(6-((2S,4S)-4-((5-chloro-4-((1-methyl-2-oxoindolin-5-yl)amino)pyrimidin-2-yl)(methyl)amino)-2-methyl-6-oxopiperidin-1-yl)-1-methyl-1H-indazol-3-yl) piperidine-2,6-dione]

target: T1, BCL6; test: BCL6_HiBiT degradation assay (2 h); assay type: cell-based; conditions: DHL-4_BCL6_HiBiT cells, read-out: YCon (% remaining maximal effect)
Procedure, shortened: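 DHL-4 cells carrying CRISPR HiBiT knock-in at endogenous BCL6, treated 2 h at 37 °C with 10-point 3-fold dilutions from 1-10 μM. BCL6 level read by Nano-Glo HiBiT lytic luminescence normalized to DMSO; four-parameter fit gives degradation EC50 and Yconstant (% remaining at maximal effect).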

Compound	Percent BCL6 remaining at maximal degradation (Ycon)
CO[C@@H]1CN(c2nc(F)c(Cl)c(Nc3ccc4c(c3)CC(=O)N4C)n2)CC[C@H]1Nc1ccc2c(C3(C)CCC(=O)NC3=O)nn(C)c2c1 (stereo partly drawn) [Example 159, 3-(6-(((3R,4R)-1-(5-chloro-4-fluoro-6-((1-methyl-2-oxoindolin-5-yl)amino)pyrimidin-2-yl)-3-methoxypiperidin-4-yl)amino)-1-methyl-1H-indazol-3-yl)-3-methylpiperidine-2,6-dione]	20 to 60%
